Active and inactive are the calls of the source. How the calls were made is not given here.
Molecular target: T1, P2X purinoceptor 3 (Rattus norvegicus) (UniProt P49654)
T1 sequence (whole entry): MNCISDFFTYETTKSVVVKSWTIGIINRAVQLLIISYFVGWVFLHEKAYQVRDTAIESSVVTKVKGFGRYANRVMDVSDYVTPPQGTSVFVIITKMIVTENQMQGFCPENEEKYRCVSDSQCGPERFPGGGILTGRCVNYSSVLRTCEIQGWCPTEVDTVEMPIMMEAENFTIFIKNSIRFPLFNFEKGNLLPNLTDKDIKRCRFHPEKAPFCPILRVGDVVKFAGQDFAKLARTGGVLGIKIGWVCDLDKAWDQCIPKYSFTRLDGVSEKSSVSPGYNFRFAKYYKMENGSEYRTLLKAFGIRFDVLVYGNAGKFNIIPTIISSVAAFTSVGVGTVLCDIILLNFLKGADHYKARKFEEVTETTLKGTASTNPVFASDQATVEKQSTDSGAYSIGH
Assay: Antagonist activity against rat P2X3 receptor expressed in CHOK1 cells assessed as inhibition of alpha,beta-meATP-induced calcium response incubated for 20 mins by Fluo-3AM dye based FLIPR assay
Assay type: functional, cell-based
Conditions: CHO-K1

SMILES	antagonist activity call (active/inactive)
COCC(C)NC(=O)c1cc(-c2ccc(C)cc2)cc(-c2nc3ccccc3s2)c1 (stereo not given)	Active
COCC(C)NC(=O)c1cc(-c2ccc(C)cc2)cc(-c2ncc(C(=O)NC(C)C)s2)c1 (stereo not given)	Active
COCC(C)NC(=O)c1cc(-c2cncs2)cc(-c2ccc(F)cc2Cl)c1 (stereo not given)	Active
Cc1ccc(-c2cc(C(=O)NC(C)c3cnccn3)cc(-c3scnc3C)c2)cc1 (stereo not given)	Active
COCC(C)NC(=O)c1cc(-c2ccc(C)cc2)cc(-c2ncc(C(=O)N(C)C)s2)c1 (stereo not given)	Active
CCc1ncsc1-c1cc(C(=O)NCc2cnc(C)cn2)cc(-c2ccc(C)cc2)c1	Active
COC[C@H](C)NC(=O)c1cc(-c2ccc(C)cc2)cc(-c2scnc2C)c1	Active
COC[C@@H](C)NC(=O)c1cc(-c2ccc(C)cc2)cc(-c2scnc2C)c1	Active
Cc1ccc(-c2cc(C(=O)NC(C)c3ccco3)cc(-c3nccs3)c2)cc1 (stereo not given)	Active
Cc1ccc(-c2cc(C(=O)NCc3ccc(C)nn3)cc(-c3ncsc3C(C)C)c2)nc1	Active
COCC(C)NC(=O)c1cc(-c2ccc(C)cc2)cc(-c2ncco2)c1 (stereo not given)	Active
Cc1ccc(-c2cc(C(=O)NC(C)c3cnccn3)cc(-c3nccs3)c2)cc1 (stereo not given)	Active
CC(=O)N1CCN(C[C@@H](C)NC(=O)c2cc(-c3nccs3)cc(-c3ccc(C)cc3F)c2)CC1	Active
Cc1ccc(-c2cc(C(=O)N[C@H](C)CO)cc(-c3nccs3)c2)c(F)c1	Active
Cc1ccc(-c2cc(C(=O)NC(C)c3cnccn3)cc(-c3nccs3)c2)c(F)c1 (stereo not given)	Active
COCC(C)NC(=O)c1cc(-c2ccc(C)cc2)cc(-c2cscn2)c1 (stereo not given)	Active

SMILES	antagonist activity call (active/inactive)
COCC(C)NC(=O)c1cc(-c2ccc(C)cc2)cc(-c2ccno2)c1 (stereo not given)	Active
CCC(C)(C)NC(=O)c1cc(-c2ccc(C)cc2)cc(-c2nccs2)c1	Active
C[C@H](CN1CCN(S(C)(=O)=O)CC1)NC(=O)c1cc(-c2nccs2)cc(-c2ccc(F)cc2Cl)c1	Active
COc1ccc([C@@H](C)NC(=O)c2cc(-c3ccc(C)cc3)cc(-c3nccs3)c2)cc1	Active
COCC(C)NC(=O)c1cc(-c2cncs2)cc(-c2ccc(F)cc2F)c1 (stereo not given)	Active
CCOC(=O)c1cnc(-c2cc(C(=O)NC(C)COC)cc(-c3ccc(C)cc3)c2)s1 (stereo not given)	Active
COCC(C)NC(=O)c1cc(-c2ccc(C)cc2)cc(-c2scnc2C)c1 (stereo not given)	Active
Cc1ccc(-c2cc(C(=O)NCc3ccc(C)nn3)cc(-c3scnc3C(C)C)c2)nc1	Active
CNC(=O)c1cnc(-c2cc(C(=O)NC(C)COC)cc(-c3ccc(C)cc3)c2)s1 (stereo not given)	Active
CCCc1ncoc1-c1cc(C(=O)NCc2cnc(C)cn2)cc(-c2ccc(C)cn2)c1	Active
COCC(C)NC(=O)c1cc(-c2ccc(C)cc2)cc(-c2oncc2C)c1 (stereo not given)	Active
Cc1ccc(-c2cc(C(=O)NCCOCCO)cc(-c3nccs3)c2)cc1	Active
Cc1ccc(-c2cc(C(=O)NC(C)(C)c3ccccc3)cc(-c3nccs3)c2)cc1	Active
Cc1ccc(-c2cc(C(=O)N[C@H](C)CN3CCN(S(C)(=O)=O)CC3)cc(-c3nccs3)c2)c(F)c1	Active
Cc1ccc(-c2cc(C(=O)N[C@@H](C)CO)cc(-c3scnc3C(C)C)c2)nc1	Active

Next, values leading:

antagonist activity call (active/inactive)	SMILES
Active	CCC(C)NC(=O)c1cc(-c2ccc(C)cc2)cc(-c2nccs2)c1 (stereo not given)
Active	Cc1ccc(-c2cc(C(=O)NC(C)c3cnccn3)cc(-c3cncs3)c2)cc1 (stereo not given)
Active	COCC(C)NC(=O)c1cc(-c2ccc(C)cc2)cc(-c2cncs2)c1 (stereo not given)
Active	Cc1ccc(-c2cc(C(=O)N[C@H](C)CN3CCOCC3)cc(-c3cncs3)c2)cc1
Active	CC(=O)N1CCN(C[C@@H](C)NC(=O)c2cc(-c3ccc(C)cc3)cc(-c3cncs3)c2)CC1
Active	Cc1ccc(-c2cc(C(=O)N[C@H](C)CN3CCOCC3)cc(-c3nccs3)c2)c(F)c1
Active	C[C@H](CN1CCN(S(C)(=O)=O)CC1)NC(=O)c1cc(-c2cncs2)cc(-c2ccc(F)cc2Cl)c1
Active	COCC(C)NC(=O)c1cc(-c2ccc(C)cc2)cc(-c2ccns2)c1 (stereo not given)
Active	Cc1ccc(-c2cc(C(=O)N[C@H](C)CO)cc(-c3nccs3)c2)cc1
Active	CC(=O)N1CCN(C[C@@H](C)NC(=O)c2cc(-c3ccc(C)cc3)cc(-c3scnc3C)c2)CC1
Active	C[C@H](CN1CCOCC1)NC(=O)c1cc(-c2nccs2)cc(-c2ccc(F)cc2Cl)c1
Active	Cc1ccc(-c2cc(C(=O)N[C@H](C)CN3CCN(S(C)(=O)=O)CC3)cc(-c3nccs3)c2)cc1
Active	Cc1ccc(-c2cc(C(=O)N[C@H](C)CN3CCOCC3)cc(-c3nccs3)c2)cc1
Active	Cc1ccc(-c2cc(C(=O)N[C@H](C)CN3CCN(S(C)(=O)=O)CC3)cc(-c3cncs3)c2)c(F)c1
Active	Cc1ccc(-c2cc(C(=O)N[C@H](C)CN3CCN(S(C)(=O)=O)CC3)cc(-c3cncs3)c2)cc1
Active	Cc1ccc(-c2cc(C(=O)NC(C)CO)cc(-c3scnc3C)c2)cc1 (stereo not given)
Active	CC(=O)N1CCN(C[C@@H](C)NC(=O)c2cc(-c3ccc(C)cc3)cc(-c3nccs3)c2)CC1
Active	Cc1ccc(-c2cc(C(=O)N[C@H](C)CN3CCS(=O)(=O)CC3)cc(-c3scnc3C)c2)cc1
Active	Cc1ccc(-c2cc(C(=O)NC(C)CN(C)C)cc(-c3nccs3)c2)cc1 (stereo not given)
Active	COCC(C)NC(=O)c1cc(-c2ccc(C)cc2)cc(-c2cocn2)c1 (stereo not given)
Active	C[C@H](CN1CCOCC1)NC(=O)c1cc(-c2cncs2)cc(-c2ccc(F)cc2Cl)c1
Active	COCC(C)NC(=O)c1cc(-c2ccc(C)cc2)cc(-c2nccs2)c1 (stereo not given)
Active	Cc1ccc(-c2cc(C(=O)N[C@H](C)CN3CCOCC3)cc(-c3scnc3C)c2)cc1
Active	COCC(C)NC(=O)c1cc(-c2ccc(C)cc2)cc(-c2cnco2)c1 (stereo not given)
